In general, ED50 refers to the dose at which the effect has come halfway, by size or by number of responders.

The nature of data set [1]: Analgesic activity: bradykinin-induced pain response (rats). Format: in vivo, SD male rats. Conditions: Rattus norvegicus, po, read-out: Analgesic activity ED50. The protocol: (B) Bradykinin-induced pain response^3,4
A polyethylene tube was inserted into a common right carotid artery of SD male rats (250 to 350 g) and 0.5 microngram per 0.1 ml of bradykinin was injected into the artery through said tube. Response induced by bradykinin such as flexin of the right forelimb, dextro-rotation of the head and rearing were considered as being indices of pain response, and the analgesic action of each test compound was determined by observing its inhibition of responses such symptoms.
(3) T. Abe, T. Kaneko and H. Takagi: Japan Pharm. Soc. Bul., 67, 9-14 (1971)
(4) G. F. Blane: J. Pharma. Pharmacol., 19, 367 (1967)

Data set [2] is described as follows: Antipyretic activity: dry yeast-induced fever (rats). Format: in vivo, SD male rats. The note with it: Rattus norvegicus, po, read-out: ED, effective dose for reducing the fever by more than 1° C. when the compound action is at the peak. On the procedure:
A 2% suspension of dry yeast was injected sub-Cutaneously to SD male rats of 250 to 300 g body weight in an amount of 2 ml/animal to cause a fever, and 4 hours later, the compounds of this invention and control drugs were administered orally. The rectal temerature of each rat was measured periodically, and the dosage of each compound required to reduce the fever by more than 1° C. at the peak of its activity was determined.

Data set [3] can be described thus: Analgesic activity: acetic acid writhing method (mice). Format: in vivo, ddy-strain male mice. Conditions: Mus musculus, po. On the procedure:
(a) Acetic acid writhing method^1
A 0.7% acetic acid solution was injected intraperitoneally to ddy-strain male mice (20 to 25 g) in an amount of 0.1 ml per 10 g mouse body weight to cause a writhing syndrome typified by stretching of the hind legs. The inhibitory action of each test compound against said symptom was observed as a measure of the analgesic activity of the compound.
(1) Hendershot, L. C. and Forsaith, J.: J. Pharmacol. Exp. Ther., 125, 237 (1959).
(2) Litchfield, Jr., J. T. and Wilcoxon, F.: J. Pharmacol. Exp. Ther., 96, 99 (1949).
For orientation: In writhing tests, fewer writhes than in controls are read as antinociception.

Data set [4] in a line: Antiphlogistic activity: carrageenin paw edema (rats). Type of data set: in vivo, Wistar rats. Conditions: Rattus norvegicus, po, 3 hours. The protocol:
(3) Antiphlogistic activity^5
Each test compound of this invention was administered orally to Wistar rats of about 300 g body weight, and 30 minutes later 0.05 ml of a 1% carrageenin solution was injected into a paw of each rat. After three hours, the paw volume was measured to determine the degree of edema formation and the 30% effective dose (ED30) was calculated from the inhibition rate relative to a control group.
(5) R. Vinegar et al: J. Pharmacol. Exp. Ther., 166, 96 (1969)
For orientation: The carrageenan paw model is a standard test of acute inflammation.

A further data set is described as follows: in vivo. The note with it: po, p.o., read-out: Safety margin (LD50/ED50). The protocol: Ten mice were used for each dose and morality was determined for 3 days after administration of each test compound of the invention. In the case of the rats, 5 rats were used for each dose and morality was determined 7 days after administrations.
A further data set has as its system SD male rats. Conditions: p.o., control drugs, given in Japan National Formulary, 6th Ed. (1982); cited from earlier work.
In the next data set the test system is ddy male mice. The note with it: p.o., control drugs, given in Japan National Formulary, 6th Ed. (1982); cited from earlier work.
The mark [5] stands for this setting: rats, p.o., bradykinin-induced pain.

Like-named read-outs stand apart in the source and are kept apart here.

Take `Cn1cnc2c1c(=O)n(CCCN1CCN(c3ccc(Cl)c(Cl)c3)CC1)c(=O)n2C` [Compound A', 1-(3-(4-(3,4-dichlorophenyl)piperazinyl-(1))-n-propyl)theobromine]: the median effective dose (ED50) in data set [1] (setting [5]) was determined as 40 mg/kg; in data set [3], 7.2 mg/kg. Further, the minimal effective dose in data set [2] turned out to be 40 mg/kg. In data set [4], this compound came in with an ED30 of 25 mg/kg.

`Cn1c(=O)c2c(ncn2CCCCN2CCN(c3ccc(F)cc3)CC2)n(C)c1=O` [Compound A]: the figures for the ED50 in data set [1] (setting [5]) and in data set [3] were 47 mg/kg and 10 mg/kg, respectively. Moreover, the selectivity ratio is 34 in the data set “in vivo” (mouse, mice) and 7.5 to 10.6 in “in vivo” (rat, rats). Also, the minimal effective dose in data set [2] stood at 10 mg/kg. The compound further displayed an ED30 in data set [4] of 10 mg/kg.

`Cc1cccc(N2CCN(CCn3c(=O)c4c(ncn4C)n(C)c3=O)CC2)c1C` [Compound B', 1-(2-(4-(2,3-dimethylphenyl)piperazinyl-(1))-ethyl)theobromine.2HCl]: the ED50 was 20 mg/kg in data set [1] (setting [5]) and 2.6 mg/kg in data set [3]. Besides, the selectivity ratio is 230 in “in vivo” (mouse, mice) and at least 100 in the data set “in vivo” (rat, rats).

For the compound `Cn1c(=O)c2c(ncn2CCCCCN2CCN(c3ccc(Cl)cc3)CC2)n(C)c1=O` [Compound B], the results for the ED50 in data set [1] (setting [5]) and in data set [3] were 40 mg/kg and 13.8 mg/kg, respectively. For the same compound, the selectivity ratio was 51 in “in vivo” (mouse, mice) and 8.8 to 12.5 in “in vivo” (rat, rats). The minimal effective dose in data set [2] is 40 mg/kg. Moreover, in data set [4], the ED30 was 50 mg/kg.

On to `Cn1cnc2c1c(=O)n(CCCN1CCN(c3ccccc3Cl)CC1)c(=O)n2C` [Compound C', 1-(3-(4-o-chlorophenylpiperazinyl-(1))-n-propyl)theobromine.2HCl], for which, in the data set “in vivo” (mouse, mice), the selectivity ratio is 61. Moreover, the ED50 in data set [3] was determined as 3.3 mg/kg. In data set [4], this compound registered an ED30 of 10 mg/kg.

On to `Cc1ccc(N2CCN(CCCn3cnc4c3c(=O)n(C)c(=O)n4C)CC2)cc1C` [Compound C], for which the ED50 in data set [1] (setting [5]) was determined as 57 mg/kg; in data set [3], 13.3 mg/kg. The selectivity ratio in “in vivo” (mouse, mice) was above 60; in “in vivo” (rat, rats), 13.6. The minimal effective dose in data set [2] turned out to be 10 mg/kg.

Regarding `COc1ccccc1N1CCN(CCCCn2c(=O)c3c(ncn3C)n(C)c2=O)CC1` [Compound D', 1-(4-(4-o-methoxyphenylpiperazinyl-(1))-n-butyl)theobromine.2HCl], in “in vivo” (mouse, mice), the selectivity ratio was in the range of 130 to 258. Also, it took a dose of 3.1 mg/kg to reach the 50% effect level in data set [3] (ED50).

For the compound `Cn1c(=O)c2c(ncn2CCCCN2CCN(c3ccc(Cl)cc3)CC2)n(C)c1=O` [Compound D], the ED50 in data set [1] worked out at 68 mg/kg; in data set [3] it was 26 mg/kg. Also, the selectivity ratio in the data set “in vivo” (mouse, mice) was determined as 22; in the data set “in vivo” (rat, rats), 7.6. In addition, the minimal effective dose in data set [2] stood at 40 mg/kg. Moreover, the ED30 in data set [4] turned out to be 25 mg/kg.

As for `Cn1cnc2c1c(=O)n(CCCCN1CCN(c3ccc(F)cc3)CC1)c(=O)n2C` [Compound E', 1-(4-(4-p-fluorophenylpiperazinyl-(1))-n-butyl)theobromie.2HCl], the selectivity ratio in the data set “in vivo” (mouse, mice) came to 26. For the same compound, the ED50 in data set [3] was 7.8 mg/kg. In data set [4], the ED30 stood at 25 mg/kg.

In the case of `Cn1cnc2c1c(=O)n(CCCCN1CCN(c3ccc(Cl)c(Cl)c3)CC1)c(=O)n2C` [Compound F', 1-(4-(4-(3,4-dichlorophenyl)piperazinyl-(1))-n-butyl)theobromine.2HCl], the selectivity ratio in “in vivo” (mouse, mice) was 51 to 103. For the same compound, the ED50 in data set [3] was determined as 7.8 mg/kg.

`Cn1c(=O)c2c(ncn2CCCCCN2CCN(c3cccc(C(F)(F)F)c3)CC2)n(C)c1=O` [Compound F]: the ED50 in data set [1] (setting [5]) was found to be 63 mg/kg; in data set [3], 27.1 mg/kg. The selectivity ratio in “in vivo” (mouse, mice) was at least 30; in “in vivo” (rat, rats), 10.5. The minimal effective dose in data set [2] amounted to 10 mg/kg. Further, in data set [4], the ED30 was 25 mg/kg.

`Cc1cccc(N2CCN(CCCCCn3c(=O)c4c(ncn4C)n(C)c3=O)CC2)c1` [Compound G', 1-(5-(4-m-methylphenylpiperazinyl-(1))-n-pentyl)theobromine.2HCl]: the selectivity ratio in “in vivo” (mouse, mice) came to 22. This compound also yielded an ED50 in data set [3] of 13.5 mg/kg. For the same compound, in data set [4], the ED30 was 25 mg/kg.

For the compound `COc1cc(C)nc(-n2nc(C)cc2OC)n1` [Control drug I, 4-methoxy-2-(5-methoxy-3-methylpyrazol-1-yl)-6-methylpyrimidine, reference compound], the results for the ED50 in data set [1] (setting [5]) and in data set [3] were at least 160 mg/kg and 240 mg/kg, respectively. Besides, the selectivity ratio is 4.3 in “in vivo” (mouse, mice) and at most 3 in “in vivo” (rat, rats). Also, the minimal effective dose in data set [2] was found to be 40 mg/kg. In the data set on SD male rats, the “Acute toxicity LD50” value is 526 mg/kg.

`O=C(Cn1c(=O)sc2ccc(Cl)cc21)N1CCN(CCO)CC1` [Control drug II, 4-((5-chloro-2-oxo-3(2H)-benzothiazolyl)acetyl)-1-piperazineethanol, reference compound]: the ED50 in data set [1] (setting [5]) is at least 160 mg/kg; in data set [3], 66 mg/kg. Further, the selectivity ratio in the data set “in vivo” (mouse, mice) was 8.5; in “in vivo” (rat, rats), at most 23. In addition, the “Acute toxicity LD50” value was 564 mg/kg in the data set on ddy male mice and 3,600 mg/kg in the data set on SD male rats. For the same compound, the minimal effective dose in data set [2] was found to be 40 mg/kg.

For the compound `OC(CN1CCCCC1)c1cc(-c2ccccc2)on1` (stereo not shown) [Control drug III, 3-(1-hydroxy-2-piperadinoethyl)-5-phenylisoxazole, reference compound], the ED50 in data set [1] (setting [5]) amounted to 160 mg/kg; in data set [3], 120 mg/kg. For the same compound, the selectivity ratio in “in vivo” (mouse, mice) was 5.1; in the data set “in vivo” (rat, rats), 12. The “Acute toxicity LD50” value is 612 mg/kg in the data set on ddy male mice and 1,978 mg/kg in the data set with SD male rats. Besides, in data set [2], the minimal effective dose worked out at 160 mg/kg.

(Values after patent US4543254A, “Antiphlogistic/antipyretic/analgesic agents containing theobromine or theophylline derivatives as active ingredient” (Eisai Co., Ltd., priority 1982, dated 1985).)
